{"source": "patent US10966426B2", "about": "“Herbicidal compositions comprising phenylpyrimidines” (BASF SE, priority 2016, dated 2021)", "assay_type_in_all_cases": "in vivo", "key": {"Alopecurus myosuroides": {"tested_on": "Alopecurus myosuroides", "experiment": "greenhouse pre-emergence treatment, ALOMY", "settings": "20 DAT", "procedure,_shortened": "(§1)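 Seeds were sown per species in pots of loamy sand with about 3.0% humus, sprayed with the aqueous spray liquor directly after sowing, watered and hooded until rooted, then kept at 10-25° C. or 20-35° C. for 2 to 4 weeks. Damage was scored 0 (none) to 100 (no emergence/complete destruction).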"}, "Papaver rhoeas": {"tested_on": "Papaver rhoeas", "experiment": "greenhouse pre-emergence treatment, PAPRH", "procedure,_shortened": "as §1"}, "Avena fatua": {"tested_on": "Avena fatua", "experiment": "greenhouse pre-emergence treatment, AVEFA", "procedure,_shortened": "as §1"}, "Polygonum convolvulus": {"tested_on": "Polygonum convolvulus", "experiment": "greenhouse pre-emergence treatment, POLCO", "procedure,_shortened": "as §1"}, "Setaria viridis": {"tested_on": "Setaria viridis", "experiment": "greenhouse pre-emergence treatment, SETVI", "procedure,_shortened": "as §1"}, "Galium aparine": {"tested_on": "Galium aparine", "experiment": "greenhouse pre-emergence treatment, GALAP", "procedure,_shortened": "as §1"}, "Digitaria sanguinalis": {"tested_on": "Digitaria sanguinalis", "experiment": "greenhouse pre-emergence treatment, DIGSA", "settings": "20 DAT, Ex. 26 solo 31.25 gai/ha", "procedure,_shortened": "as §1"}, "[1]": {"settings": "20 DAT, Ex. 26 solo 31.25 gai/ha"}, "[2]": {"settings": "20 DAT, Ex. 26 solo 62.5 gai/ha"}}, "note": "Several values for one entry are separate records, joined by “and”; a condition that tells them apart may be missing. Identical values can stand only once."}
{"compound": "COC(=O)c1nc(C2CC2)ncc1-c1ccc(F)cc1Cl", "note": "[Ex. 26]", "values": [{"measurement": "% activity", "setting": "Alopecurus myosuroides; solo Ex. 26 62.5 gai/ha", "value": 85, "unit": "%"}, {"measurement": "% activity", "setting": "Alopecurus myosuroides; Ex. 26 solo 62.5 gai/ha", "value": 60, "unit": "%"}, {"measurement": "% activity", "setting": "Alopecurus myosuroides; Ex. 26 solo, 31.25 gai/ha", "value": 60, "unit": "%"}, {"measurement": "% activity", "setting": "Alopecurus myosuroides; Ex. 26 solo, 62.5 gai/ha", "value": 80, "unit": "%"}, {"measurement": "% activity", "setting": "Papaver rhoeas; [1]", "value": 0, "unit": "%"}, {"measurement": "% activity", "setting": "Papaver rhoeas; [2]", "value": 0, "unit": "%"}, {"measurement": "% activity", "setting": "Papaver rhoeas; 20 DAT, Ex. 26 solo 125 gai/ha", "value": 30, "unit": "%"}, {"measurement": "% activity", "setting": "Papaver rhoeas; 20 DAT, solo Ex. 26 62.5 gai/ha", "value": 0, "unit": "%"}, {"measurement": "% activity", "setting": "Papaver rhoeas; Ex. 26 solo 31.25 gai/ha, 20 DAT", "value": 0, "unit": "%"}, {"measurement": "% activity", "setting": "Papaver rhoeas; Ex. 26 solo 62.5 gai/ha, 20 DAT", "value": 0, "unit": "%"}, {"measurement": "% activity", "setting": "Papaver rhoeas; Ex. 26 solo 125 gai/ha, 20 DAT", "value": "0% and 30%"}, {"measurement": "% activity", "setting": "Papaver rhoeas; Ex. 26 solo, 31.25 gai/ha, 20 DAT", "value": 0, "unit": "%"}, {"measurement": "% activity", "setting": "Papaver rhoeas; Ex. 26 solo, 62.5 gai/ha, 20 DAT", "value": 0, "unit": "%"}, {"measurement": "% activity", "setting": "Papaver rhoeas; Ex. 26 solo, 125 gai/ha, 20 DAT", "value": 0, "unit": "%"}, {"measurement": "% activity", "setting": "Avena fatua; 20 DAT, AVEFA, Ex. 26 solo 125 gai/ha", "value": "65% and 70%"}, {"measurement": "% activity", "setting": "Avena fatua; 20 DAT, Ex. 26 solo 125 gai/ha", "value": 65, "unit": "%"}, {"measurement": "% activity", "setting": "Avena fatua; 21 DAT, AVEFA, Ex. 26 solo 250 gai/ha", "value": 70, "unit": "%"}, {"measurement": "% activity", "setting": "Avena fatua; AVEFA, 20 DAT, solo Ex. 26 62.5 gai/ha", "value": 55, "unit": "%"}, {"measurement": "% activity", "setting": "Avena fatua; AVEFA, 20 DAT, solo Ex. 26 62.5 gai/ha (Table X68)", "value": 45, "unit": "%"}, {"measurement": "% activity", "setting": "Avena fatua; AVEFA, 20 DAT, solo Ex. 26 125 gai/ha", "value": 75, "unit": "%"}, {"measurement": "% activity", "setting": "Avena fatua; AVEFA, 20 DAT, solo Ex. 26 125 gai/ha (Table X68)", "value": 65, "unit": "%"}, {"measurement": "% activity", "setting": "Avena fatua; AVEFA, Ex. 26 solo 62.5 gai/ha, 20 DAT", "value": 40, "unit": "%"}, {"measurement": "% activity", "setting": "Avena fatua; AVEFA, Ex. 26 solo 125 gai/ha, 20 DAT", "value": 65, "unit": "%"}, {"measurement": "% activity", "setting": "Avena fatua; AVEFA, Ex. 26 solo 250 gai/ha, 20 DAT", "value": 75, "unit": "%"}, {"measurement": "% activity", "setting": "Avena fatua; Ex. 26 solo, 31.25 gai/ha, 20 DAT, AVEFA", "value": "25% and 20%"}, {"measurement": "% activity", "setting": "Avena fatua; Ex. 26 solo, 62.5 gai/ha, 20 DAT, AVEFA", "value": 55, "unit": "%"}, {"measurement": "% activity", "setting": "Polygonum convolvulus; [2]", "value": 0, "unit": "%"}, {"measurement": "% activity", "setting": "Polygonum convolvulus; 20 DAT, Ex. 26 solo 125 gai/ha", "value": 0, "unit": "%"}, {"measurement": "% activity", "setting": "Polygonum convolvulus; 20 DAT, POLCO, Ex. 26 solo 31.25 gai/ha", "value": 0, "unit": "%"}, {"measurement": "% activity", "setting": "Polygonum convolvulus; 20 DAT, POLCO, Ex. 26 solo 62.5 gai/ha", "value": 0, "unit": "%"}, {"measurement": "% activity", "setting": "Polygonum convolvulus; 20 DAT, POLCO, Ex. 26 solo 125 gai/ha", "value": 0, "unit": "%"}, {"measurement": "% activity", "setting": "Polygonum convolvulus; 20 DAT, POLCO, Ex. 26 solo 250 gai/ha", "value": 30, "unit": "%"}, {"measurement": "% activity", "setting": "Polygonum convolvulus; Ex. 26 solo 62.5 gai/ha, 20 DAT, POLCO", "value": 0, "unit": "%"}, {"measurement": "% activity", "setting": "Polygonum convolvulus; Ex. 26 solo 125 gai/ha, 20 DAT, POLCO", "value": 0, "unit": "%"}, {"measurement": "% activity", "setting": "Polygonum convolvulus; Ex. 26 solo, 62.5 gai/ha, 20 DAT, POLCO", "value": 0, "unit": "%"}, {"measurement": "% activity", "setting": "Polygonum convolvulus; Ex. 26 solo, 125 gai/ha, 20 DAT, POLCO", "value": 0, "unit": "%"}, {"measurement": "% activity", "setting": "Polygonum convolvulus; POLCO, 20 DAT, solo Ex. 26 62.5 gai/ha", "value": 0, "unit": "%"}, {"measurement": "% activity", "setting": "Polygonum convolvulus; POLCO, 20 DAT, solo Ex. 26 125 gai/ha", "value": 0, "unit": "%"}, {"measurement": "% activity", "setting": "Polygonum convolvulus; POLCO, Ex. 26 solo 125 gai/ha, 20 DAT", "value": 0, "unit": "%"}, {"measurement": "% activity", "setting": "Polygonum convolvulus; POLCO, Ex. 26 solo 250 gai/ha, 20 DAT", "value": 30, "unit": "%"}, {"measurement": "% activity", "setting": "Setaria viridis; [1]", "value": 0, "unit": "%"}, {"measurement": "% activity", "setting": "Setaria viridis; [2]", "value": 0, "unit": "%"}, {"measurement": "% activity", "setting": "Setaria viridis; 20 DAT, Ex. 26 solo 125 gai/ha", "value": 10, "unit": "%"}, {"measurement": "% activity", "setting": "Setaria viridis; Ex. 26 solo 62.5 gai/ha, 20 DAT, SETVI", "value": 0, "unit": "%"}, {"measurement": "% activity", "setting": "Setaria viridis; Ex. 26 solo 62.5 gai/ha, 21 DAT, SETVI", "value": 0, "unit": "%"}, {"measurement": "% activity", "setting": "Setaria viridis; Ex. 26 solo 125 gai/ha, 20 DAT, SETVI", "value": 0, "unit": "%"}, {"measurement": "% activity", "setting": "Setaria viridis; Ex. 26 solo 125 gai/ha, 21 DAT, SETVI", "value": 20, "unit": "%"}, {"measurement": "% activity", "setting": "Setaria viridis; Ex. 26 solo 250 gai/ha, 21 DAT, SETVI", "value": 25, "unit": "%"}, {"measurement": "% activity", "setting": "Setaria viridis; Ex. 26 solo, 31.25 gai/ha, 20 DAT, SETVI", "value": 0, "unit": "%"}, {"measurement": "% activity", "setting": "Setaria viridis; Ex. 26 solo, 62.5 gai/ha, 20 DAT, SETVI", "value": 0, "unit": "%"}, {"measurement": "% activity", "setting": "Setaria viridis; Ex. 26 solo, 125 gai/ha, 20 DAT, SETVI", "value": 0, "unit": "%"}, {"measurement": "% activity", "setting": "Setaria viridis; SETVI, 20 DAT, solo Ex. 26 125 gai/ha", "value": 0, "unit": "%"}, {"measurement": "% activity", "setting": "Setaria viridis; SETVI, Ex. 26 solo 125 gai/ha, 20 DAT", "value": 10, "unit": "%"}, {"measurement": "% activity", "setting": "Setaria viridis; SETVI, Ex. 26 solo 250 gai/ha, 20 DAT", "value": 35, "unit": "%"}, {"measurement": "% activity", "setting": "Galium aparine; [1]", "value": 0, "unit": "%"}, {"measurement": "% activity", "setting": "Galium aparine; [2]", "value": 0, "unit": "%"}, {"measurement": "% activity", "setting": "Galium aparine; 20 DAT, Ex. 26 solo 125 gai/ha", "value": 0, "unit": "%"}, {"measurement": "% activity", "setting": "Galium aparine; 20 DAT, GALAP, Ex. 26 solo 31.25 gai/ha", "value": 0, "unit": "%"}, {"measurement": "% activity", "setting": "Galium aparine; 20 DAT, GALAP, Ex. 26 solo 62.5 gai/ha", "value": 0, "unit": "%"}, {"measurement": "% activity", "setting": "Galium aparine; 20 DAT, GALAP, Ex. 26 solo 125 gai/ha", "value": 0, "unit": "%"}, {"measurement": "% activity", "setting": "Galium aparine; 20 DAT, GALAP, Ex. 26 solo 250 gai/ha", "value": 0, "unit": "%"}, {"measurement": "% activity", "setting": "Galium aparine; Ex. 26 solo, 31.25 gai/ha, 20 DAT, GALAP", "value": 0, "unit": "%"}, {"measurement": "% activity", "setting": "Galium aparine; Ex. 26 solo, 62.5 gai/ha, 20 DAT, GALAP", "value": 0, "unit": "%"}, {"measurement": "% activity", "setting": "Galium aparine; Ex. 26 solo, 125 gai/ha, 20 DAT, GALAP", "value": 0, "unit": "%"}, {"measurement": "% activity", "setting": "Galium aparine; GALAP, 20 DAT, solo Ex. 26 125 gai/ha", "value": 0, "unit": "%"}, {"measurement": "% activity", "setting": "Galium aparine; GALAP, Ex. 26 solo 62.5 gai/ha, 20 DAT", "value": 0, "unit": "%"}, {"measurement": "% activity", "setting": "Galium aparine; GALAP, Ex. 26 solo 125 gai/ha, 20 DAT", "value": 0, "unit": "%"}, {"measurement": "% activity", "setting": "Galium aparine; GALAP, Ex. 26 solo 250 gai/ha, 20 DAT", "value": 0, "unit": "%"}, {"measurement": "% activity", "setting": "Digitaria sanguinalis", "value": 30, "unit": "%"}]}
